Where “and” joins values, the source holds several entries; their conditions need not be identical. Equal values may be shown once. Read-outs that look alike come from different tables or passages of the source.
Experiments:
[1] = test system: seven human cancer cell lines; test: Cytocidal action on human cancer cell lines; type: cell-based
Procedure: (§1) Seven human cancer cell lines were obtained from the American Tissue Culture Collection (Rockville, Md.) and maintained in the recommended growth media. Cells were seeded into wells (2 cm^2) at a density of 2×10^4 cells/cm^2. Various concentrations of Compounds 1-13 were added to the media at the time of seeding.
(§2) The cultures were incubated for 72 hours at 37° C. (5% CO2 atmosphere). Following incubation, cells were detached with trypsin and counted in a hemocytometer.

HeLa (cervical cancer) = test: Cytocidal action/growth inhibition, HeLa; type: cell-based; conditions: Homo sapiens, 72 h
Procedure: as §1, §2
(§3) I100 designates the concentration at which no viable cells remained; I50 the concentration at which 50% viable cells remained, as compared to a control.
(§4) E-ras 20 cells were cultured as reported, Bauer et al., 1996, "Modification of growth related enzymatic pathways and apparent loss of tumorigenicity of a ras-transformed bovine endothelial cell line by treatment with 5-iodo-6-amino-1,2-benzopyrone (INH2 BP)" Intl. J. Oncol. 8:239-252; HT-144 (melanoma), DU-145 (prostatic cancer), HeLa (cervical cancer), HL 60 (promyelocytic leukemia), MDA-MB-231 (mammary cancer), SK-Br-3 (mammary cancer), T47D (ductal mammary cancer), A559 (lung cancer) were obtained from American Type Culture Collection (Rockville, Md.) and cultured in prescribed media. The effect of DIME was tested in cultures with a starting cell density of 2×10^4 cells per cm^2 and comparison of the effect of DIME on cell growth (intact cells identified by Trypan blue exclusion) was assayed by direct cell counting after trypsinization in a hemocytometer 72 hours after drug addition.
(§5) For DIME-exposure experiments cells were seeded into 2 cm^2 wells at a density of 2×10^4 cells/cm^2. DIME at various concentrations was added to the medium at the time of seeding. The cell cultures were then incubated for 3 days (37° C. in 5% at CO2 atmosphere).

[2] = test system: MDA-MD-231 (mammary cancer); test: Cytocidal action/growth inhibition, MDA-MB-231; type: cell-based; conditions: Homo sapiens
Procedure: as §1, §2, §3, §4, §5

[3] = test system: E-ras transformed bovine endothelial cells; test: Morphology of E-ras cells; type: cell-based
Procedure: E-ras transformed bovine endothelial cells (Bauer et al., 1996, Intl. J. Oncology 8:239-252) were exposed to 10 μM DIME for […]. The DIME-treated cells (10^5 or 10^6 cells/100 μL) were injected subcutaneously into nude mice and tumor progression followed for 25 days.
Microscopic morphology of E-ras cells was examined by techniques reported earlier, Mendeleyev et al., 1997, "Structural Specificity and Tumoricidal Action of Methyl-3,5-Diiodo-4-(4'- Methoxyphenoxy) Benzoate (DIME)," Intl. J. Oncol.,in press; Bauer et al., 1996, "Modification of Growth Related Enzymatic Pathways and Apparent Loss of Tumorigenicity of a ras-Transformed Bovine Endothelial Cell Line" by Treatment With 5-iodo-6-amino-1,2-benzopyrone (INH BP).

[4] = Serum half-life and bioavailability of 14C-DIME; type: in vivo, mouse
Procedure: Aliquots (50 μL) of blood were assayed in a liquid scintillation counter and data expressed as microgram-equivalents per mL. The blood level data were analyzed by the RSTRIP method (Micromath, Salt Lake City, Utah).

MDA-MB-231 cells = test: Immunocytochemistry of mitotic spindle and spindle-associated proteins; type: cell-based, human; conditions: 18 hrs
Procedure: Cells were fixed in methanol at -20° C. for 5 min. The primary antibody was mouse monoclonal anti-beta tubulin (Amersham) and secondary antibody from goat, conjugated to fluorescein isothiocyanate from Cappel (Durham, N.C., USA). The DNA of nuclei was stained by 10 min of incubation in 0.05 μg/ml 4'-6-diamidono-2-phenylindole (DAPI). Stained cells were viewed with either a Zeiss 40xPlan-Neofluar or a Nikon 60xPlanApo objective. For classification of cells in the mitotic phase, prophase and metaphase were combined into a single category, because it was difficult to distinguish late prophase from metaphase.
In preliminary studies (data not shown) we have also studied the behavior of certain spindle-associated proteins by the immunocytologic technique.

[5] = test system: microtubule protein (MTP); test: Microtubule protein (MTP) polymerization optical test; type: biochemical, bovine or rabbit
Procedure: Preparation of MTP and an optical test for polymerization was adopted from published methods, Gaskin, et al., 1974, "Turbidimetric studies of the in vitro assembly and disassembly of porcine neurotubules", J. Mol. Biol. 89:737-758; Tiwari, et al., 1993, "A pH and temperature-dependent cycling method that doubles the yield of microtubule protein", Anal. Biochem. 215:96-103. Bovine or rabbit brain was homogenized in an equal volume of ice cold buffer containing 100 mM Pipes/K^+ (pH 7.4), 4 mM EGTA, 1 mM MgCl2, 0.5 mM DTT and 0.1 mM PMSF, and centrifuged at 39,000 g for 1 hour at 4° C. To the supernatant, DMSO (8% final concentration) and GTP (1 mM final concentration) were added, followed by incubation at 37° C. for 30 minutes. Microtubules were pelleted at 100,000 g at 37° C for 30 minutes. The pellets were incubated on ice for 15 minutes, followed by resuspension in ice cold PEM buffer (100 mM Pipes/K+(pH 6.9), 1 mM EGTA, 1 mM MgCl2). This warm polymerization and cold depolymerization cycle was repeated once more and the cold, resuspended monomeric MTP (8-10 mg/ml protein) was used for the optical test for polymerization kinetics. Both rabbit or bovine brain yielded identical MTP preparations.
The composition of the optical test is described in the legends of Figures and Table 12. The polymerization reaction was started by the addition of 100 μl of MTP solution (equivalent to 0.8-1.0 mg protein) and initial linear rates of increase in absorbance at 350 nm followed and recorded at 37° C. (see FIG. 1) in a Perkin-Elmer 552 double beam spectrophotometer, equipped with a thermostatically controlled cuvette holder.
[…] Microtubule assembly at 37° C. was monitored at λ=350 nm and initial velocities were calculated as mA350 /min. […] The values are averages of duplicate assays.

[6] = test system: E-ras 20 cells (E-ras transformed bovine endothelial cells); test: Tumorigenicity of pretreated E-ras 20 cells in athymic nude mice; parameters: species or system bovine cells in nude mice; conditions: 10 μM pretreatment, no in vivo drug treatment

SMILES: COC(=O)c1cc(I)c(Oc2ccc(OC)cc2)c(I)c1 [Compound 1, Methyl 3,5-diiodo-4-(4'-methoxyphenoxy)benzoate]
- cytocidal action ([1]; 72 hours): maximally active
- activity in cellular assays and in vivo ([1]; cellular assays and in vivo): highly active
- IC50 (HeLa (cervical cancer); Table 4, read-out: I50): 600 nM
- IC100 (HeLa (cervical cancer); Table 4, read-out: I100 (no viable cells remained)): 3.5 µM
- IC50 (HeLa (cervical cancer); day 3, Table 11, read-out: I50 (day 3)): 600 nM
- IC50 ([2]; MDA-MB-231, 72 h, day 3, Table 11, read-out: I50 (day 3)): 400 nM
- IC50 ([2]; MDA-MB-231, 72 h, Table 4, read-out: I50): 400 nM
- IC100 ([2]; MDA-MB-231, 72 h, Table 4, read-out: I100 (no viable cells remained)): 3 µM
- cell morphology ([3]; 4 μM, 18-24 hrs, E-ras 20 cells): tumor cells enlarged and, as especially visible at 300-fold magnification, numerous micronuclei appeared
- micronucleation ([3]; 10 μM, 3 days): induced extensive micronucleation
- i.v. serum half-life (t1/2) ([4]; i.v., 24.5 mg/kg): 2 to 2.5 h
- oral bioavailability ([4]; oral 126 mg/kg vs i.v. 24.5 mg/kg, listed as DIME, 126 mg/kg): 83% and 87%
- half-life (t1/2) ([4]; serum): 2 to 2.5 h
- mitotic spindle / tubulin distribution (MDA-MB-231 cells; 1 μM): striking abnormalities of-tubulin distribution
- Cyclin B-microtubule-spindle association (MDA-MB-231 cells; 1 μM, data not shown): remained unchanged
- cdc-2 kinase-spindle binding (MDA-MB-231 cells; 1 μM, data not shown): induction of cdc-2-kinase-spindle binding
- number of centrosomes (MDA-MB-231 cells; 1 μM, data not shown): unable to detect abnormal number of centrosomes
- pericentrin staining pattern (MDA-MB-231 cells; 1 μM, data not shown): did not alter the pattern of staining
- protein phosphatase 2a-spindle association (MDA-MB-231 cells; 1 μn (so in the source), data not shown): not influenced by drug-treatment
- decrease of Vmax ([5]; 1 μM DIME): ~50%
- type of inhibition of MTP polymerization ([5]; 1 μM DIME, versus GTP): "mixed" type inhibition
- Km ([5]; 1 μM DIME, 6.7 μM without drug, read-out: km GTP): 14 µM
- Percent inhibition of initial velocity of microtubule assembly ([5]; 10 μM, 1 mM GTP, 37° C.): 93%
- inhibition of GTP-dependent polymerization of MTP ([5]; 1 to 5 μM): inhibits the GTP-dependent polymerization of MTP
- tumor appearance after 3 months [6]: Tumors did not appear even after 3 months

From patent publication US6017958A, “Method of treating malignant tumors with thyroxine analogues having no significant hormonal activity” (Octamer, Inc., priority 1997, dated 2000)
